How the values were obtained:
[1] = tested on: fat in the triceps region; test: In vivo human study, topical ointment, body fat calipers in triceps region; details: human subjects; topical ointment 0.003%, 0.03% or 0.3% daily; 6 months
From the text: The following experiment describes a randomized, double-blind study in human subjects to test whether compounds according to the present disclosure, including topical FK-788, reduces fat in the body of individuals.
Multiple human subjects (both male and female), for example, with body mass indices of 30 or more but otherwise healthy, are entered into a randomized double-blind study. Either the left or the right arm is randomized to receive topical FK-788; the other arm receives vehicle only. FK-788 is supplied in a petrolatum-based ointment (the vehicle) at a final concentration of 0%, 0.003%, 0.03% or 0.3%. Ointment containers are unlabeled as to the presence or concentration of FK-788.
Each day, subjects apply a thin film of ointment to the skin over the respective triceps while wearing new, clean surgical gloves. Subjects are instructed to refrain from washing the treated area for at least 8 hours and are instructed to refrain from wearing tight clothing or occlusive dressings that will come into contact with the treated area.
Body fat calipers are used to measure fat in the triceps region bilaterally on a weekly basis. The study continues for 6 months. […] As a result, this contemplated outcome will show, in vivo, that compounds according to the present invention, including FK-788, can reduce fat.

human adipocytes = test: human adipocyte lipolysis assay (glycerol released into the medium); assay type: cell-based; details: for glycerol release / lipolytic activity in human adipocytes (FIG. 2): fully differentiated human adipocytes, 1 μM
Method: Two weeks after the initiation of differentiation, differentiated cells appeared rounded with large lipid droplets apparent in the cytoplasm, and were thereby considered mature adipocytes. At this time, the differentiation medium was washed out. Two days after washing out the differentiation agents, the mature adipocytes were treated with different concentrations of PGI2 receptor agonist compounds cicaprost, beraprost, FK-788 and selexipag. Lipolytic activity was assessed by the measurement of glycerol released into the medium from triglyceride breakdown. In this experiment, lipolysis was measured using a human adipocyte lipolysis assay kit (ZenBio, Inc., Research Triangle Park, N.C., Cat #LIP-1-SPF).
The data are provided in FIG. 1 and are expressed as fold induction over a buffer control (mature adipocytes treated with vehicle buffer in the absence of any agonist). Each data point on the graph in FIG. 1 represents the mean±SEM of 2 to 8 experiments.
The in vitro human adipocytes lipolysis results for cicaprost and FK-788 from Example 1 at the 1 μM concentration were compared to lipolysis induced by those compounds in ex vivo mouse adipocytes, which are commonly used to detect lipolytic activity.

[2] = fold induction over buffer control

relative potency among the PGI2 receptor agonists tested (human adipocytes; human mature adipocytes, cicaprost, beraprost, FK-788 and selexipag compared) | Structure (SMILES) | fat in treated arm compared to vehicle-treated arm [1] | glycerol release / lipolytic activity in human adipocytes (FIG. 2) (human adipocytes; [2]) | increase in glycerol production (human adipocytes; human mature adipocytes, concentration of about 0.1 μM, fold induction over buffer control)
 | O=C(O)COc1cccc2c1CC[C@](O)(COC(=O)N(c1ccccc1)c1ccccc1)C2 [FK-788, 2-[[(6R)-6-[di(phenyl)carbamoyloxymethyl]-6-hydroxy-7,8-dihydro-5H-naphthalen-1-yl]oxy]acetic acid] | lower fat | increased glycerol release | 
most potent agonist | CCC#CC[C@H](C)[C@H](O)C#C[C@@H]1[C@H]2C/C(=C/COCC(=O)O)C[C@H]2C[C@H]1O [cicaprost, 2-[(2E)-2-[(3aS,4S,5R,6aS)-5-hydroxy-4-[(3S,4S)-3-hydroxy-4-methylnona-1,-6-diynyl]-3,3a,4,5,6,6a-hexahydro-1H-pentalen-2-ylidene]ethoxy]acetic acid] |  | increased glycerol release | approximately 3 fold

Reference: US20200171026A1, “PROSTACYCLIN RECEPTOR AGONISTS FOR REDUCTION OF BODY FAT” (Allergan, Inc., priority 2017, published 2020)
